One series relates to denuded oocytes (DO). In words: Oocyte assay, denuded oocytes (DO): overcoming hypoxanthine maintained meiotic arrest. Conditions: 22 hours culture, hypoxanthine 4 mM, control value in parentheses. In kind it is cell-based, mice (B6D2-F1, strain C57BL×DBA). The procedure: (§1) The meiosis activating activity of the […]-hydroxycholesta-8,14-diene derivatives of the invention is measured in an in vitro oocyte assay as the ability to overcome the hypoxanthine maintained meiotic arrest in denuded oocytes (DO) or cumulus enclosed oocytes (CEO). Oocytes arrested in meiosis contain diffused chromosomes which are surrounded by an intact nuclear envelope known as the germinal vesicle (GV). Upon reinitiation of meiosis by the […] gonadotropin surge, the chromosomes recondense and the GV breaks down (GVBD). In vivo, the oocyte is exposed to hypoxanthine (HX), which maintains the oocyte arrested in the meiotic prophase. This meiotic arrest can be mimicked in vitro by addition of hypoxanthine to the culture medium. The agonistic activity of the meiosis activating substances is measured as the ability to overcome the hypoxanthine maintained meiotic arrest in denuded oocytes (DO) or cumulus enclosed oocytes (CEO), i.e. as the ability to induce meiotic resumption in vitro. Ovaries are obtained from immature female mice (B6D2-F1, strain C57BL×DBA). At the age of 19, 20 or 21 days the mice are injected subcutaneously with a single dose of 20 IU follicle stimulating hormone (Humegon, Organon, The Netherlands) in saline. Forty-eight hours after follicle stimulating hormone injection mice are killed by cervical dislocation. The ovaries are removed, freed of extraneous tissue and placed in a multidish containing 0.5 ml preparation medium at 37° C. […] At t=0 the number of oocytes with intact germinal vesicles (GV) or germinal vesicle break-down (GVBD) is counted under an inverted microscope with differential interference contrast equipment. […] At the end of the culture period the number of oocytes with GV or GVBD per group is counted. For statistical analysis the percentage germinal vesicle breakdown is calculated for each group in one block. These percentages are subjected to arcsin transformation, and differences between control and test compounds are analyzed by an ANOVA test for a randomized block design.

Series [1] relates to cumulus enclosed oocytes (CEO). In words: Oocyte assay, cumulus enclosed oocytes (CEO): overcoming hypoxanthine maintained meiotic arrest. It is filed as cell-based, mice (B6D2-F1, strain C57BL×DBA). To be noted: 22 hours culture, hypoxanthine 4 mM, control value in parentheses. Here is the method:
as §1

For series [2], the system named is cultured cumulus enclosed and naked mouse oocytes. To be noted: cited from earlier work.
The next series relates to meiosis. Conditions: disclosed in WO 98/28323; cited from earlier work.

Molecules are shown by their SMILES.

In turn, `CC(C)CC[C@H](O)[C@@H](C)[C@H]1CC=C2C3=C(CC[C@@]21C)[C@@]1(C)CC[C@H](O)C(C)(C)[C@@H]1CC3` [Example 1, (3β,5α,20S ,22S)-4,4-Dimethylcholesta-8,14-diene-3,22-diol] returned a melting point of 142 to 143 °C. The “% GVBD DO assay exp.” value with denuded oocytes (DO) (5 μM) is 85(0) %. Further, the “% GVBD CEO assay exp.” value in series [1] (5 μM) was 6(3) %.

Turning to `CC(C)=CC[C@H](O)[C@@H](C)[C@H]1CC=C2C3=C(CC[C@@]21C)[C@@]1(C)CC[C@H](O)C(C)(C)[C@@H]1CC3` [Example 2, (3β,5α,20S,22S )-4,4-Dimethylcholesta-8,14,24-triene-3,22-diol], the melting point lay within 106 to 108 °C. Also, the “% GVBD DO assay exp.” value in the series on denuded oocytes (DO) (5 μM) is recorded as 97(2) %. The “% GVBD CEO assay exp.” value in series [1] (5 μM) is 73(2) %.

Take `CC(C)=CCC[C@@H](C)[C@H]1CC=C2C3=C(CC[C@@]21C)[C@@]1(C)CC[C@H](O)C(C)(C)[C@@H]1CC3` [FF-Mas, (3β,5α,20R)-4,4-dimethylcholesta-8,14,24-trien-3-ol]: in the series with denuded oocytes (DO) (10 μM), the “% GVBD DO assay exp.” value is on record as 84(7) %. The “% GVBD CEO assay exp.” value in series [1] (10 μM) is given as 0(0) %. Also, the “ability to activate the resumption of meiosis” value in series [2] is “able to activate the resumption of meiosis”.

For `CC(C)=CCC[C@@H](C)[C@H]1CC[C@H]2C3=C(CC[C@]12C)[C@@]1(C)CC[C@H](O)C(C)(C)[C@@H]1CC3` [(3β,5α,20R)-4,4-dimethylcholesta-8,24-dien-3-ol], the “ability to activate the resumption of meiosis” value in series [2] is reported as “able to activate the resumption of meiosis”.

As for `CC(C)CC[C@@H](O)[C@@H](C)[C@H]1CC[C@H]2[C@@H]3CC=C4C[C@@H](O)CC[C@]4(C)[C@H]3CC[C@]12C` [22R-hydroxycholesterol], the “agonist/antagonist of meiosis activating substance” value in the series on meiosis was “antagonist”.

These data come from patent US6528501B1, “22s-hydroxycholesta-8, 14-diene derivatives with meiosis regulating activity” (Akzo Nobel N.V., priority 1998, dated 2003).
